Experimental data as given in publication PMC10955571 (ACS Omega, 2024).
Where a SMILES comes first, the peptide text is derived from it. The star is where a group is joined. Isobutyryl = CC(C)C(=O)*; Cbz = O=C(OCc1ccccc1)*; OAll = C=CCO*

Assays:
Human AChE = Human AChE (Homo sapiens, UniProt P22303); test: AChE inhibition, Ellman assay; type: biochemical
BACE-1 = BACE-1 (Homo sapiens, UniProt P56817); test: BACE-1 FRET inhibition assay; type: biochemical
Aβ1–42 = Aβ1–42 (Homo sapiens, UniProt P05067); test: Inhibition of Aβ1–42 self-induced aggregation, Thioflavin-T fluorometric assay; type: biochemical; conditions: read-out: % inhibition of Aβ1–42 aggregation at 10 μM, 10 μM compound
[1] = system: scopolamine-induced memory impairment in mice; test: Morris water maze test, scopolamine-induced memory impairment; type: in vivo, Swiss albino mice; conditions: MWM, one animal from each group; for time taken by the animals to reach the platform, after the training (5th day): basal reading before any treatment; for time taken by the animals to reach the platform, after treatment with the test compound/donepezil (11th day): before scopolamine; for time taken by the animals to reach the platform, after treatment with the test compound/donepezil (11th day) / time taken by the animals to reach the platform, after treatment with scopolamine (14th day): compounds 10 mg/kg, donepezil 3 mg/kg; for time taken by the animals to reach the platform, after treatment with scopolamine (14th day): scopolamine 2 mg/kg i.p. days 12-14
PAMPA-BBB permeability = conditions: for Papp at 5 h, 200 μM: PAMPA, pH 7.4
Plasma stability assay = type: in vitro ADME

Sequence of Human AChE (P22303 32-614): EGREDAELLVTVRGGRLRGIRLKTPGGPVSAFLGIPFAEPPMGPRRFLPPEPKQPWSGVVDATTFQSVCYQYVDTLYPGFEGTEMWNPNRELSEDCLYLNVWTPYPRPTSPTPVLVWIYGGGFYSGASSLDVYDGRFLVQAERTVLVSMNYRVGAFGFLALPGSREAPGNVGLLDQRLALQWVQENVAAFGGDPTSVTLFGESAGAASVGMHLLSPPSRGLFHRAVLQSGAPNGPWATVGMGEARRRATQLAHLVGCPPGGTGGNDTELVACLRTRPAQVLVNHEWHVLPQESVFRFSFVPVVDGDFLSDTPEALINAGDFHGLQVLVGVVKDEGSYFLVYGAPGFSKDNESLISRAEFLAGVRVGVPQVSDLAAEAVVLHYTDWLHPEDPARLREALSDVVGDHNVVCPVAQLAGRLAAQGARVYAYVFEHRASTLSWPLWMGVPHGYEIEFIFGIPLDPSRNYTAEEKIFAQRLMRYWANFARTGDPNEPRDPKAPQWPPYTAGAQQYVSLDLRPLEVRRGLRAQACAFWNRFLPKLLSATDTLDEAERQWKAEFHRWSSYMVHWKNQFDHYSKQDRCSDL
Sequence of BACE-1 (P56817 46-501): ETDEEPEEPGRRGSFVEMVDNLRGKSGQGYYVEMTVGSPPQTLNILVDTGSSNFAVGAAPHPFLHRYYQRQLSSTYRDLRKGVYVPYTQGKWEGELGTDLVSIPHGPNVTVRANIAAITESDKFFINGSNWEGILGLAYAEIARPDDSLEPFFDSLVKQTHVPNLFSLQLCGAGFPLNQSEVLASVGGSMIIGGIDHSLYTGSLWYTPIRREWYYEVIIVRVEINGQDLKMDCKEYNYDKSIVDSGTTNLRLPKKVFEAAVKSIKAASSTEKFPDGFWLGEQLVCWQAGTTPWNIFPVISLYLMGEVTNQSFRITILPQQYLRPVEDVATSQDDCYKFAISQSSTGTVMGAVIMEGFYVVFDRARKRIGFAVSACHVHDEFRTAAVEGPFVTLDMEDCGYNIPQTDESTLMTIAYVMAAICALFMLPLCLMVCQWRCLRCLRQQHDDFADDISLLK
Sequence of Aβ1–42 (P05067 672-713): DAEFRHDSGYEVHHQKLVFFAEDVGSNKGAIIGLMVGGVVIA

SMILES	IC50 (Human AChE)	IC50 (BACE-1)	inhibition at 10 µM (Aβ1–42)	time taken by the animals to reach the platform, after the training (5th day) [1]	time taken by the animals to reach the platform, after treatment with the test compound/donepezil (11th day) [1]	time taken by the animals to reach the platform, after treatment with scopolamine (14th day) [1]	Papp at 5 h, 200 μM (PAMPA-BBB permeability)	also measured
COC(=O)[C@H](C)NC(=O)[C@@H]1CCCN1C(=O)CNC(=O)C(C)C [Compound 13, Isobut-Gly-Pro-Ala-OMe] (Isobutyryl-Gly-Pro-Ala-OMe)	7 ± 1 µM	200 ± 30 nM	36.3 ± 4.3%					
CC(C)C(=O)NCC(=O)N1CCC[C@H]1C(=O)N[C@@H](C)C(=O)O [Compound 14, Isobut-Gly-Pro-Ala-OH] (Isobutyryl-Gly-Pro-Ala-OH)	8 ± 1.2 µM	600 ± 50 nM						
C=CCOC(=O)[C@H](C)NC(=O)[C@@H]1CCCN1C(=O)CNC(=O)C(C)C [Compound 15, Isobut-Gly-Pro-Ala-O-allyl] (Isobutyryl-Gly-Pro-Ala-OAll)	0.05 ± 0.01 µM	50 ± 1 nM	> 50%	11 s	11 s	93 s	1.8 ×10⁻⁶ cm/s	
CC(C)=CCOC(=O)[C@H](C)NC(=O)[C@@H]1CCCN1C(=O)CNC(=O)C(C)C [Compound 16, Isobut-Gly-Pro-Ala-O-dimethylallyl]	1 ± 0.1 µM	200 ± 10 nM						
CC(C)C(=O)NCC(=O)N1CCC[C@H]1C(=O)N[C@@H](C)C(=O)OC/C=C/c1ccccc1 [Compound 17, Isobut-Gly-Pro-Ala-O-Cinnamyl]	0.9 ± 0.1 µM	100 ± 10 nM					3.64 ×10⁻⁶ cm/s	
CC(C)=CCC/C(C)=C/COC(=O)[C@H](C)NC(=O)[C@@H]1CCCN1C(=O)CNC(=O)C(C)C [Compound 18, Isobut-Gly-Pro-Ala-O-Geranyl]	7 ± 1.3 µM	20000 ± 2000 nM	12.5 ± 2.1%	5 s	5 s	71 s	3.17 ×10⁻⁶ cm/s	
COC(=O)[C@H](C)NC(=O)[C@@H]1CCCN1C(=O)CNC(=O)OCc1ccccc1 [Compound 21, Cbz-Gly-Pro-Ala-OMe] (Cbz-Gly-Pro-Ala-OMe)	1000 ± 9.5 µM	30000 ± 4100 nM						IC50 AChE (Human AChE; Ellman assay, mean ± SEM): millimolar range
C[C@H](NC(=O)[C@@H]1CCCN1C(=O)CNC(=O)OCc1ccccc1)C(=O)O [Compound 22, Cbz-Gly-Pro-Ala-OH] (Cbz-Gly-Pro-Ala-OH)	0.1 ± 0.01 µM	300 ± 20 nM						
C=CCOC(=O)[C@H](C)NC(=O)[C@@H]1CCCN1C(=O)CNC(=O)OCc1ccccc1 [Compound 23, Cbz-Gly-Pro-Ala-O-Allyl] (Cbz-Gly-Pro-Ala-OAll)	0.8 ± 0.1 µM	1000 ± 200 nM						
CC(C)=CCOC(=O)[C@H](C)NC(=O)[C@@H]1CCCN1C(=O)CNC(=O)OCc1ccccc1 [Compound 24, Cbz-Gly-Pro-Ala-O-dimethylallyl]	0.6 ± 0.03 µM	20000 ± 2300 nM						
C[C@H](NC(=O)[C@@H]1CCCN1C(=O)CNC(=O)OCc1ccccc1)C(=O)OC/C=C/c1ccccc1 [Compound 25, Cbz-Gly-Pro-Ala-O-cinnamyl]	1 ± 0.2 µM	20 ± 1 nM	> 50%	20 s	15 s	15 s	17.8 ×10⁻⁶ cm/s	change in the concentration in plasma (Plasma stability assay; 50 μM in plasma pH 7–8, 37 °C, 12 h incubation): ~10%; effect of plasma on the half-life time (Plasma stability assay; 50 μM in plasma, 37 °C): no remarkable effect on the half-life time
CC(C)=CCC/C(C)=C/COC(=O)[C@H](C)NC(=O)[C@@H]1CCCN1C(=O)CNC(=O)OCc1ccccc1 [Compound 26, Cbz-Gly-Pro-Ala-O-Geranyl]	0.7 ± 0.1 µM	100 ± 10 nM	31.8 ± 3.2%	7 s	39 s	45 s		
COC(=O)[C@H](C)NC(=O)[C@@H]1CCCN1C(=O)CN [Compound 30, NH2-Gly-Pro-Ala-OMe] (H-Gly-Pro-Ala-OMe)	2 ± 1.1 µM	20 ± 1 nM	33.7 ± 4.2%	20 s	12 s	65 s	8.98 ×10⁻⁶ cm/s	
C(=C\n1nncc1COc1ccc2ccccc2c1-c1c(OCc2cnnn2/C=C/Cc2ccccc2)ccc2ccccc12)/Cc1ccccc1 [Compound 33, 2,2′-Bis((1-((E)-3-phenylprop-1-en-1-yl)-1H-1,2,3-triazol-5-yl)methoxy)-1,1′-binaphthalene]	7 ± 1.4 µM	1000 ± 100 nM	43.2 ± 4.7%				1.59 ×10⁻⁶ cm/s	
Cn1c(=O)c2c(ncn2C)n(C)c1=O [caffeine, reference compound]							10.9 ×10⁻⁶ cm/s	Pe (PAMPA-BBB) (PAMPA-BBB permeability; 200 μM in PBS pH 7.4, 5 h, room temperature): 10.9 × 10^–6 cm s^–1
COc1cc2c(cc1OC)C(=O)C(CC1CCN(Cc3ccccc3)CC1)C2 (stereo not shown) [donepezil, reference compound]			10.9 ± 1.4%	15 s	17 s	10 s		
CCn1cc(C(=O)O)c(=O)c2cc(F)c(N3CCNCC3)cc21 [norfloxacin, reference compound]							1.73 ×10⁻⁶ cm/s	
CN1[C@@H]2C[C@@H](OC(=O)[C@H](CO)c3ccccc3)C[C@H]1[C@@H]1O[C@@H]12 [scopolamine, reference compound]						77 s		
